Measurements reported in patent US8338582B2, “Anti-HIV immunogens and methods for inducing an immune response” (Fundacao de Amparo a Pesquisa do Estado de Sao Paulo, priority 2005, dated 2012).
Read-outs that look alike come from different tables or passages of the source.

Experiments:
[1] = tested on: peripheral blood mononuclear cells from HIV-1 seronegative individuals; details: for IFN-γ spots/10^6 PBMC, Average (AV): average of 8 seronegative individuals; for IFN-γ spots/10^6 PBMC, Average (AV) / IFN-γ spots/10^6 PBMC: peptide 5 μM; for IFN-γ spots/10^6 PBMC, AV + 3SD: average plus 3 standard deviations, 8 seronegative individuals
Method: (§1) Step d) is achieved by synthesizing the peptides representing the epitopes of the present invention, followed by ELISPOT assay to detect IFN-γ-producing cells. For the purposes of the present invention, the positivity cutoff value used is ≧30 SFC IFN-γ/10^6 PBMC, calculated based on the levels of responses of HIV-1 seronegative patients
(§2) Synthetic peptide stocks were diluted to 25 mg/mL in dimethylsulphoxide, followed by ELISPOT assays for detection of IFN-γ-producing cells in response to the epitopes using peripheral blood mononuclear cells (PBMC) in 34 HIV-1+ patients of several clinical groups, long-term nonprogressors (LTNP), reconsituted, partial controllers, and progressors. Each epitope was tested in a concentration of 5 μM. The cryopreserved cells were maintained in culture for 16 hours, placed on plates in the presence of the epitopes, incubated for a further 18 hours, washed and ELISPOT plates were developed for the identification of spot-forming cells/Interferon-γ-producing cells (IFN-γ SFC), which were then counted in an automated counter (Zeiss KS ELISpot/Axioplan 2).

[2] = tested on: peripheral blood mononuclear cells (PBMC) in 34 HIV-1+ patients; details: 5 μM, positive ≧30 SFC IFN-γ/10^6 PBMC
Method: as §1, §2

Sequence	IFN-γ spots/10^6 PBMC, Average (AV) [1] [spots/10^6 PBMC]	IFN-γ spots/10^6 PBMC, AV + 3SD [1] [spots/10^6 PBMC]	IFN-γ spots/10^6 PBMC ([1]; seronegative individual C#01) [spots/10^6 PBMC]	IFN-γ spots/10^6 PBMC ([1]; seronegative individual C#02) [spots/10^6 PBMC]	IFN-γ spots/10^6 PBMC ([1]; seronegative individual C#03) [spots/10^6 PBMC]	IFN-γ spots/10^6 PBMC ([1]; seronegative individual C#04) [spots/10^6 PBMC]	IFN-γ spots/10^6 PBMC ([1]; seronegative individual C#05) [spots/10^6 PBMC]	IFN-γ spots/10^6 PBMC ([1]; seronegative individual C#06) [spots/10^6 PBMC]	IFN-γ spots/10^6 PBMC ([1]; seronegative individual C#07) [spots/10^6 PBMC]	IFN-γ spots/10^6 PBMC ([1]; seronegative individual C#08) [spots/10^6 PBMC]	percentage of HIV-1+ patients recognizing the individual peptide [2] [%]
ALFYKLDVVPID [env 3]	1.5	10	5	0	0	7	0	0	0	0	
DKELYPLASLRSLFG [gag 4]	3.7	17.4	0	0	5	12	8	0	0	5	
EAIIRILQQLLFIHF [vpr 2]	4.6	24.2	0	12	15	0	0	0	0	10	
EELRSLYNTVATLYCVH [gag 1]	1.7	10.0	0	7	0	2	0	0	0	5	
ELLKTVRLIKFLYQSNP [rev 1]	3	12.9	5	7	5	7	0	0	0	0	
GKIILVAVHVASGYI [pol 3]	0.2	2.4	0	2	0	0	0	0	0	0	
KRWIILGLNKIVRMYSPTSI [gag 3]	3.6	20	0	12	5	12	0	0	0	0	
NTSYRLISCNTSVI [env 4]	5.2	24.6	0	7	15	2	3	0	0	15	
QQLLFIHFRIGCRHSRIG [vpr 3]	1.9	12.3	0	8	7	0	0	0	0	0	
QRPLVTIKIGGQLKE [pol 1]	5.1	26.9	0	0	20	12	3	0	1	5	44
SELYLYKVVKIEPLGVAP [env 5]	0.6	5.9	0	0	5	0	0	0	0	0	
SLQYLALVALVAPKK [vif 2]	3.1	19.7	0	8	2	0	0	0	0	15	
SPEVIPMFSALSE [gag 2]	0.9	6.3	0	2	0	0	0	0	0	5	
TMLLGMLMICSAA [env 2]	3.4	19.7	0	7	5	0	0	0	0	15	
VLAIVALVVATIIAI [vpu 1]	3.7	16.2	0	0	7	7	0	0	6	10	
VLEWRFDSRLAFHHV [nef 1]	4.4	17.7	0	3	7	12	8	0	0	5	
